Measurements taken from the CheMixHub viscosity set.
Where “and” joins values, the source holds several entries; their conditions need not be identical. Equal entries are not always repeated.

Experiment: xn = mol fraction of the nth substance listed

Cc1cc(C)cc(C)c1 + CCCCCCCCCCO
viscosity [mPa·s], 101 kPa
Conditions | 298.15 K | 308.15 K
x1 = 0.0752 | 9.427 | 6.401
x1 = 0.1354 | 7.818 | 5.334
x1 = 0.2083 | 6.204 | 4.256
x1 = 0.265 | 5.179 | 3.572
x1 = 0.3292 | 4.194 | 2.936
x1 = 0.3894 | 3.456 | 2.445
x1 = 0.4633 | 2.728 | 1.942
x1 = 0.5303 | 2.202 | 1.595
x1 = 0.6033 | 1.754 | 1.279
x1 = 0.6643 | 1.458 | 1.084
x1 = 0.7341 | 1.195 | 0.901
x1 = 0.7998 | 1.002 | 0.768
x1 = 0.8724 | 0.838 | 0.669
x1 = 0.9442 | 0.728 | 0.606

O=C(Cc1ccccc1)c1ccccc1 + CCCCCOC(C)=O
298.15 K, 101 kPa
Conditions | viscosity [mPa·s]
x1 = 0.0268 | 0.8294
x1 = 0.0344 | 0.849

O=S=O + CCCCN(CCCC)CCCC
303.15 K, 100 kPa
Conditions | viscosity [mPa·s]
x1 = 0.21 | 1.4
x1 = 0.35 | 3.2
x1 = 0.45 | 12.9

O=C1CCCN1 + CCCCO
Conditions | viscosity [mPa·s]
293.15 K, 101 kPa, x1 = 0.8554 | 10.75

Cc1cc(C)cc(C)c1 + CCCO
293.15 K, 101 kPa
Conditions | viscosity [mPa·s]
x2 = 0.2 | 0.748
x2 = 0.4 | 0.855
x2 = 0.6 | 1.075
x2 = 0.8 | 1.419

CC=CC(=O)OCC + CCO
viscosity [mPa·s], 101 kPa
Conditions | x1 = 0.0991 | x1 = 0.1985 | x1 = 0.2994 | x1 = 0.3961 | x1 = 0.5006 | x1 = 0.6 | x1 = 0.6968 | x1 = 0.7816 | x1 = 0.8996
293.15 K | 1.026 | 0.929 | 0.9257 | 0.9219 | 0.878 | 0.8293 | 0.8016 | 0.8351 | 0.8122
298.15 K | 0.9334 | 0.8523 | 0.8465 | 0.8404 | 0.8061 | 0.7663 | 0.7402 | 0.7648 | 0.7535
303.15 K | 0.8498 | 0.7812 | 0.7751 | 0.7739 | 0.7411 | 0.7061 | 0.6855 | 0.7052 | 0.7
313.15 K | 0.7166 | 0.6615 | 0.6607 | 0.6588 | 0.6372 | 0.6091 | 0.5958 | 0.6134 | 0.6108
323.15 K | 0.6156 | 0.5747 | 0.5702 | 0.5686 | 0.5537 | 0.5363 | 0.5284 | 0.5414 | 0.5401

Cc1cc(C)cc(C)c1 + CCO
293.15 K, 101 kPa
Conditions | viscosity [mPa·s]
x2 = 0.2 | 0.718
x2 = 0.4 | 0.764
x2 = 0.6 | 0.854
x2 = 0.8 | 0.983

O=S=O + CCOC(C)=O
298.15 K, 101 kPa
Conditions | viscosity [mPa·s]
x1 = 0.115 | 0.4299
x1 = 0.236 | 0.4289
x1 = 0.35 | 0.4239

O=S=O + CCOCC
298.15 K, 101 kPa
Conditions | viscosity [mPa·s]
x1 = 0.0574 | 0.2303
x1 = 0.0951 | 0.2353
x1 = 0.1329 | 0.24
x1 = 0.1607 | 0.2443

O=C1CCCN1 + CN1CCCC1=O
298.15 K, 100 kPa
Conditions | viscosity [mPa·s]
x1 = 0.0188 | 1.759
x1 = 0.0298 | 1.79
x1 = 0.0397 | 1.827
x1 = 0.0507 | 1.835
x1 = 0.065 | 1.874
x1 = 0.0793 | 1.963
x1 = 0.097 | 1.992
x1 = 0.1004 | 1.999
x1 = 0.1498 | 2.168
x1 = 0.1993 | 2.356
x1 = 0.2495 | 2.568
x1 = 0.3001 | 2.808
x1 = 0.3497 | 3.067
x1 = 0.3986 | 3.361
x1 = 0.4492 | 3.704
x1 = 0.4994 | 4.091
x1 = 0.5493 | 4.53
x1 = 0.5989 | 5.022
x1 = 0.6497 | 5.608
x1 = 0.6992 | 6.263
x1 = 0.7487 | 7.017
x1 = 0.7986 | 7.914
x1 = 0.8494 | 8.966
x1 = 0.8984 | 10.14
x1 = 0.918 | 10.67
x1 = 0.9287 | 10.99
x1 = 0.9394 | 11.33
x1 = 0.959 | 12.01
x1 = 0.9695 | 12.29
x1 = 0.9798 | 12.64
x2 = 0.0111 | 12.96

OCCCCO + CN1CCCC1=O
308.15 K, 101 kPa
Conditions | viscosity [mPa·s]
x1 = 0.0277 | 1.784
x1 = 0.0556 | 1.943
x1 = 0.1011 | 2.235
x1 = 0.1982 | 3.025
x1 = 0.2982 | 4.088
x1 = 0.4038 | 5.57
x1 = 0.4943 | 7.06
x1 = 0.6011 | 11.08
x1 = 0.7044 | 16.24
x1 = 0.7935 | 21.61
x1 = 0.8996 | 33.43
x1 = 0.946 | 39.29
x1 = 0.965 | 41.43

CCCCCCCC/C=C\CCCCCCCC(=O)O + CN1CCC[C@H]1c1cccnc1
viscosity [mPa·s], 101 kPa
Conditions | 298.15 K | 323.15 K
x2 = 0.1049 | 74.27 | 22.13
x2 = 0.1989 | 107 | 29.28
x2 = 0.2016 | 108 | 29.56
x2 = 0.2132 | 110.3 | 30.03
x2 = 0.2175 | 110.4 | 30.15
x2 = 0.2346 | 112.3 | 30.48
x2 = 0.2482 | 110.3 | 30.13
x2 = 0.2489 | 110 | 30.12
x2 = 0.2601 | 109.3 | 30.1
x2 = 0.2826 | 105.3 | 28.77
x2 = 0.298 | 102.5 | 28.02
x2 = 0.4102 | 73.48 | 22.19
x2 = 0.4841 | 51.84 | 17.6
x2 = 0.5948 | 34.19 | 12.35
x2 = 0.7031 | 20.12 | 8.136
x2 = 0.7939 | 11.7 | 5.197
x2 = 0.8975 | 7.276 | 3.432

OCCCCO + CN(C)C=O
308.15 K, 101 kPa
Conditions | viscosity [mPa·s]
x1 = 0.0565 | 0.762
x1 = 0.101 | 0.904
x1 = 0.1892 | 1.222
x1 = 0.2806 | 1.761
x1 = 0.3915 | 2.578
x1 = 0.4722 | 3.596
x1 = 0.5803 | 6.998
x1 = 0.6682 | 10.85
x1 = 0.7755 | 17.92
x1 = 0.8845 | 28.4
x1 = 0.9487 | 37.31

Cc1cc(C)cc(C)c1 + CO
293.15 K, 101 kPa
Conditions | viscosity [mPa·s]
x2 = 0.2 | 0.696
x2 = 0.4 | 0.699
x2 = 0.5 | 0.715
x2 = 0.6 | 0.721
x2 = 0.8 | 0.683

O=C1CCCN1 + CO
298.15 K, 100 kPa
Conditions | viscosity
x1 = 0.0098 | 0.568 mPa·s
x1 = 0.0194 | 0.587 mPa·s
x1 = 0.0295 | 0.641 mPa·s
x1 = 0.0392 | 0.657 mPa·s
x1 = 0.0499 | 0.687 mPa·s
x1 = 0.059 | 0.671 mPa·s
x1 = 0.0688 | 0.691 mPa·s
x1 = 0.078 | 0.708 mPa·s
x1 = 0.0883 | 0.755 mPa·s
x1 = 0.0973 | 0.759 mPa·s
x1 = 0.0988 | 0.906 mPa·s
x1 = 0.2022 | 1.133 mPa·s
x1 = 0.2963 | 1.432 mPa·s
x1 = 0.3984 | 1.937 mPa·s
x1 = 0.4592 | 2.346 mPa·s
x1 = 0.5694 | 3.304 mPa·s
x1 = 0.6844 | 4.749 mPa·s
x1 = 0.7834 | 6.52 mPa·s
x1 = 0.8988 | 9.529 mPa·s and 9.56 mPa·s
x1 = 0.9076 | 9.83 mPa·s
x1 = 0.9213 | 10.34 mPa·s
x1 = 0.9308 | 10.66 mPa·s
x1 = 0.9383 | 10.97 mPa·s
x1 = 0.9496 | 11.39 mPa·s
x1 = 0.9615 | 11.92 mPa·s
x1 = 0.9741 | 12.35 mPa·s
x2 = 0.0101 | 13.03 mPa·s
